According to ChEMBL document CHEMBL1136565, “5-Azidoepibatidine: an exceptionally potent photoaffinity ligand for neuronal alpha 4 beta 2 and alpha 7 nicotinic acetylcholine receptors” (Bioorg Med Chem Lett, 2003):

Assays:
[1] = Binding affinity to Drosophila nicotinic receptor was measured using [3H]imidacloprid as radioligand; design: species or system Drosophila melanogaster
[2] = target: Neuronal acetylcholine receptor subunit alpha-7 (Homo sapiens, UniProt P36544); assay: Binding affinity to alpha-7 receptor subtype from human neuroblastoma SH-SY5Y cells was measured using [125I]-alpha-bungarotoxin as radioligand; type: cell-based
Chain of Neuronal acetylcholine receptor subunit alpha-7 (P36544 whole entry): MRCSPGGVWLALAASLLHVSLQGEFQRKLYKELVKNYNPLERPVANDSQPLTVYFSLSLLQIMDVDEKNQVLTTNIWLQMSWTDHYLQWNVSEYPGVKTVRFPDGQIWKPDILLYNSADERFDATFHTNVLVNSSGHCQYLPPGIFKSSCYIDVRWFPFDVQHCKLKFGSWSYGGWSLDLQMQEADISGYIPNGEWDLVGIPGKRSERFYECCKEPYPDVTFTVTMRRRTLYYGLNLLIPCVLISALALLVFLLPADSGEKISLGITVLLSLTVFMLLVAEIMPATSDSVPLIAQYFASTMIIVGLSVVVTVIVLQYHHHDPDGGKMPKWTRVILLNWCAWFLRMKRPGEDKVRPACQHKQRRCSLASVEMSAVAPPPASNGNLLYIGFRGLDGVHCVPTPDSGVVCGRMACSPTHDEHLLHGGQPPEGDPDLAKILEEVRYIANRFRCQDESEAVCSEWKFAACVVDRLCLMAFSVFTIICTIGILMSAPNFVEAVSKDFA

[3] = target: Neuronal acetylcholine receptor; alpha4/beta2 (Homo sapiens, UniProt P17787+P43681); assay: Binding affinity to alpha4 beta-2 receptor subtype from mouse fibroblast M10 cells was measured using [3 H]nicotine; type: cell-based
Chain of Neuronal acetylcholine receptor; alpha4/beta2 (P17787 whole entry): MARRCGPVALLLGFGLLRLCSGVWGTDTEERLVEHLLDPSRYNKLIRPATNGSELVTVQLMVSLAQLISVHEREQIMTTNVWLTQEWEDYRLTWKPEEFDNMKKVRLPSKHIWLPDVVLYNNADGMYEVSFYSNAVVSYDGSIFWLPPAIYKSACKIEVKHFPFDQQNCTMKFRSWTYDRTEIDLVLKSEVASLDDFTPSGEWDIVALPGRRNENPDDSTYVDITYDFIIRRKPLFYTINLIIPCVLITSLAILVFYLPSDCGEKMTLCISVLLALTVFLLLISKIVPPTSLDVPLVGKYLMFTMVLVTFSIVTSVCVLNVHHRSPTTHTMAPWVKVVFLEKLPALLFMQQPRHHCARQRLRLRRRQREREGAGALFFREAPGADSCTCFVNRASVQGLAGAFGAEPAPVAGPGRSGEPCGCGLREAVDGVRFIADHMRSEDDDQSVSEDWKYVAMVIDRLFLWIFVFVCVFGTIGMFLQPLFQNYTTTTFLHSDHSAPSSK
Chain of Neuronal acetylcholine receptor; alpha4/beta2 (P43681 whole entry): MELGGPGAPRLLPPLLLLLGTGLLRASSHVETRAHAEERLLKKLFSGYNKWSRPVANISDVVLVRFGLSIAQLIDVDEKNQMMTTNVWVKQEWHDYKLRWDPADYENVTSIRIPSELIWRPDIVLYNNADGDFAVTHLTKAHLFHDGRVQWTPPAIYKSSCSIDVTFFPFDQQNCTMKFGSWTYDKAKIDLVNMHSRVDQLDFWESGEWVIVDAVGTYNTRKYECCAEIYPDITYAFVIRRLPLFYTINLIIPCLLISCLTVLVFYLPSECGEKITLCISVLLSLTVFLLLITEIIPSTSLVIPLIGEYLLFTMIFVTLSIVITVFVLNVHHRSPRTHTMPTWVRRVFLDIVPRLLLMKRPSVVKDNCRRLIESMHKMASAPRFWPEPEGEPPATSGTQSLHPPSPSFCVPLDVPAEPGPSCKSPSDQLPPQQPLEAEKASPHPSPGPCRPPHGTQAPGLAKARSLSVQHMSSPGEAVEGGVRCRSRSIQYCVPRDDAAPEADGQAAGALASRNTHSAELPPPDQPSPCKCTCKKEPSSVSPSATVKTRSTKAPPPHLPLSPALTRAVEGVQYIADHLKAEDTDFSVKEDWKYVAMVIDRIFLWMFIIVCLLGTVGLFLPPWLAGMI

Compound	Ki [1]	Ki [2]	Ki [3]
[N-]=[N+]=Nc1cc(C2CC3CCC2N3)cnc1Cl (stereo not given) [AZIDOEPIBATIDINE]	2100 nM	9.7 nM	0.027 nM
Clc1ccc(C2CC3CCC2N3)cn1 (stereo not given) [EPIBATIDINE]	200 nM	10.2 nM	
